According to the supplement of paper PMC10307832:

Legend:
Experiment in all cases: relative viability (nuclei count vs DMSO), 5 days (fraction); higher = more cells survive
Vandetanib + Lapatinib = compound: COc1cc2/c(=N/c3ccc(Br)cc3F)nc[nH]c2cc1OCC1CCN(C)CC1 [Vandetanib] + CS(=O)(=O)CCNCc1ccc(-c2ccc3ncnc(Nc4ccc(OCc5cccc(F)c5)c(Cl)c4)c3c2)o1 [Lapatinib] (partner 2 µM)
Method in brief: (§1)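 Relative viability was taken as the ratio of nuclei in treated wells to nuclei in vehicle wells. Lung cancer cell lines in 1536-well plates received compounds by pin tool one day after seeding, either one drug alone or a fixed anchor-drug dose plus five library-drug doses (not always all listed) in √10 steps. Nuclei were counted on 4× images after 5 days of treatment, and values are medians of duplicate plates.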

[1] = compound: C1=CC=C2C(=C1)N=C(S2)C(C#N)C3=NC(=NC=C3)NCCC4=CN=CC=C4 + COc1cccc2cc(-c3nc([C@H]4CC[C@H](C(=O)O)CC4)n4ncnc(N)c34)[nH]c12 [OSI-027] (partner 0.5 µM)
Method in brief: as §1

Vandetanib + Decitabine = compound: COc1cc2/c(=N/c3ccc(Br)cc3F)nc[nH]c2cc1OCC1CCN(C)CC1 [Vandetanib] + Nc1ncn([C@H]2C[C@H](O)[C@@H](CO)O2)c(=O)n1 [Decitabine] (partner 2 µM)
Method in brief: as §1

[2] = compound: C1=CC=C2C(=C1)N=C(S2)C(C#N)C3=NC(=NC=C3)NCCC4=CN=CC=C4 + O=C(CCCCCCC(=O)Nc1ccccc1)NO [Vorinostat] (partner 1 µM)
Method in brief: as §1

Cell Line | relative viability (Vandetanib + Lapatinib; first compound 0.02 µM) | relative viability (Vandetanib + Lapatinib; first compound 0.06325 µM) | relative viability (Vandetanib + Lapatinib; first compound 0.2 µM) | relative viability (Vandetanib + Lapatinib; first compound 0.6325 µM) | relative viability (Vandetanib + Lapatinib; first compound 2 µM) | relative viability ([1]; first compound 0.005 µM) | relative viability ([1]; first compound 0.01581 µM) | relative viability ([1]; first compound 0.05 µM) | relative viability ([1]; first compound 0.1581 µM) | relative viability ([1]; first compound 0.5 µM) | relative viability (Vandetanib + Decitabine; first compound 0.02 µM) | relative viability (Vandetanib + Decitabine; first compound 0.06325 µM) | relative viability (Vandetanib + Decitabine; first compound 0.2 µM) | relative viability (Vandetanib + Decitabine; first compound 0.6325 µM) | relative viability (Vandetanib + Decitabine; first compound 2 µM) | relative viability ([2]; first compound 0.005 µM) | relative viability ([2]; first compound 0.01581 µM) | relative viability ([2]; first compound 0.05 µM) | relative viability ([2]; first compound 0.1581 µM) | relative viability ([2]; first compound 0.5 µM)
NCI-H2405 | 1.1 | 0.842 | 1.25 | 1.14 | 0.316 | 0.666 | 0.673 | 0.614 | 0.695 | 0.645 | 0.749 | 0.687 | 0.747 | 0.8 | 0.718 | 0.82 | 0.938 | 0.953 | 1.15 | 0.727
NCI-H3122 | 1.05 | 0.975 | 1.04 | 1.06 | 1 | 0.671 | 0.923 | 0.895 | 1.34 | 0.819 | 0.454 | 0.39 | 0.178 | 0.456 | 0.481 | 0.923 | 1.34 | 0.97 | 1.05 | 1.1
PC-3 [JPC-3] | 0.442 | 0.482 | 0.49 | 0.458 | 0.41 | 0.717 | 0.877 | 0.771 | 0.888 | 0.483 | 0.876 | 0.847 | 0.72 | 0.661 | 0.488 | 0.864 | – | 0.843 | 0.991 | 0.737
PC-14 | 0.295 | 0.382 | 0.308 | 0.273 | 0.282 | 0.606 | 0.923 | 0.669 | 1.22 | 0.729 | 0.246 | 0.197 | 0.175 | 0.171 | 0.159 | 0.642 | 0.769 | 0.675 | 0.753 | 0.576
RERF-LC-KJ | 0.848 | 0.839 | 0.827 | 0.843 | 0.878 | 0.645 | 0.564 | 0.511 | 0.63 | 0.562 | 0.711 | 0.74 | 0.737 | 0.665 | 0.555 | 0.603 | 0.623 | 0.609 | 0.7 | 0.578
SK-LU-1 | 0.859 | 0.676 | 0.992 | 0.832 | 0.816 | 0.278 | 0.374 | 0.349 | 0.345 | 0.297 | 0.605 | 0.562 | 0.658 | 0.612 | 0.654 | 0.643 | 0.859 | 0.787 | 0.911 | 0.685
SK-MES-1 | 0.474 | 0.499 | 0.489 | 0.471 | 0.459 | 0.483 | 0.659 | 0.48 | 0.722 | 0.558 | 0.419 | 0.38 | 0.411 | 0.276 | 0.252 | 1.01 | 1.06 | 0.938 | 1.32 | 0.935
SW 1573 | 1.07 | 1.21 | 0.599 | 1.2 | 1.17 | 0.497 | 0.54 | – | 0.923 | 0.557 | 0.467 | 0.481 | 0.594 | 0.508 | 0.393 | 0.577 | 0.82 | 0.43 | 0.846 | 0.618
